The assay relates to BDF1 mice, P388 leukemia ip, median survival T/C. Put plainly: NCI In Vivo Anticancer Drug Screen. Data for tumor model P388 Leukemia (intraperitoneal) in B6D2F1 (BDF1) mice. The following applies: endpoint: median survival time, higher = longer survival. The method in brief:
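Steps: implant the tumour, treat one group with compound and another with vehicle, record survival, then divide treated by control.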

The mark [1] stands for this setting: dose: 100.0 mg/kg/injection, schedule: Q01DX009 (ip), vehicle: saline.
Where [2] appears, read: dose: 200.0 mg/kg/injection, schedule: Q01DX009 (ip), vehicle: saline.
Setting [3] is: dose: 12.5 mg/kg/injection, schedule: Q01DX001 (ip), vehicle: saline with Tween-80.
[4] abbreviates: dose: 50.0 mg/kg/injection, schedule: Q01DX009 (ip), vehicle: saline with Tween-80.
Setting [5] is: dose: 200.0 mg/kg/injection, schedule: Q01DX009 (ip), vehicle: saline with Tween-80.
The mark [6] stands for this setting: dose: 100.0 mg/kg/injection, schedule: Q01DX009 (ip), vehicle: saline with Tween-80.
[7] abbreviates: dose: 12.5 mg/kg/injection, schedule: Q01DX009 (ip), vehicle: Klucel (hydroxypropylcellulose) (HPC).
Where [8] appears, read: dose: 25.0 mg/kg/injection, schedule: Q01DX009 (ip), vehicle: Klucel (hydroxypropylcellulose) (HPC).
The mark [9] stands for this setting: dose: 200.0 mg/kg/injection, schedule: Q01DX009 (ip), vehicle: Klucel (hydroxypropylcellulose) (HPC).
Where [10] appears, read: dose: 400.0 mg/kg/injection, schedule: Q01DX009 (ip), vehicle: Klucel (hydroxypropylcellulose) (HPC).

These results are taken from PubChem BioAssay AID328 (DTP/NCI, 2004).

Where “and” joins values, the source holds several entries; their conditions need not be identical. Identical values can stand only once. Inconclusive results and toxic doses are left out.

Turning to `N#Cc1nc2nc(C(F)(F)F)[nH]c2nc1C#N`, the T/C is, setting by setting: (dose: 6.25 mg/kg/injection, schedule: Q04DX003 (ip), vehicle: saline with Tween-80) 100 % of control; (dose: 12.5 mg/kg/injection, schedule: Q01DX009 (ip), vehicle: saline with Tween-80) 95 % of control; (dose: 12.5 mg/kg/injection, schedule: Q04DX003 (ip), vehicle: saline with Tween-80) 100 % of control; (dose: 25.0 mg/kg/injection, schedule: Q04DX003 (ip), vehicle: saline with Tween-80) 87 % of control and 90 % of control.

Consider `CN=C(c1ccc(NC(=O)c2ccc(C(=O)Nc3ccc(C(=NC)N(C)C)cc3)cc2)cc1)N(C)C`, for which the T/C is 110 % of control (dose: 2.0 mg/kg/injection, schedule: Q01DX010 (ip), vehicle: water) and 115 % of control (dose: 4.0 mg/kg/injection, schedule: Q01DX010 (ip), vehicle: water).

For the molecule `C[N+]12CCN(CC1)CC2`, the T/C was 91 % of control under setting [1]; 91 % of control under setting [2]; 100 % of control (dose: 400.0 mg/kg/injection, schedule: Q01DX009 (ip), vehicle: saline).

On to `Nc1nc(F)nc2c1ncn2C1OC(CO)C(O)C1O` (stereo not drawn), for which the T/C reads like this: (dose: 0.5 mg/kg/injection, schedule: Q01DX010 (ip), vehicle: saline) 90 % of control and 108 % of control; (dose: 1.0 mg/kg/injection, schedule: Q01DX010 (ip), vehicle: saline) 100 % of control and 108 % of control; (dose: 2.0 mg/kg/injection, schedule: Q01DX010 (ip), vehicle: saline) 110 % of control and 120 % of control; (dose: 4.0 mg/kg/injection, schedule: Q01DX010 (ip), vehicle: saline) 105 % of control and 112 % of control.

Turning to `O=[N+]([O-])c1ccc(/C=N/c2nccs2)o1`, the T/C was 107 % of control (dose: 3.12 mg/kg/injection, schedule: Q04DX003 (ip), vehicle: saline); 106 % of control and 107 % of control (dose: 6.25 mg/kg/injection, schedule: Q04DX003 (ip), vehicle: saline); 92 % of control (dose: 12.5 mg/kg/injection, schedule: Q01DX009 (ip), vehicle: saline); 92 % of control and 107 % of control and 115 % of control (dose: 12.5 mg/kg/injection, schedule: Q04DX003 (ip), vehicle: saline); 90 % of control (dose: 25.0 mg/kg/injection, schedule: Q01DX009 (ip), vehicle: saline); 107 % of control and 111 % of control and 115 % of control (dose: 25.0 mg/kg/injection, schedule: Q04DX003 (ip), vehicle: saline). For the same molecule, the T/C (dose: 50.0 mg/kg/injection, schedule: Q01DX009 (ip), vehicle: saline) was 94 % of control; the T/C (dose: 50.0 mg/kg/injection, schedule: Q04DX003 (ip), vehicle: saline) was 101 % of control and 107 % of control; the T/C under setting [1] was 86 % of control; the T/C (dose: 100.0 mg/kg/injection, schedule: Q04DX003 (ip), vehicle: saline) was 109 % of control and 110 % of control; the T/C under setting [2] was 98 % of control.

Turning to `CC[N-]c1nnnn1CC.[Au+].c1ccc([PH+](c2ccccc2)c2ccccc2)cc1`, the T/C under setting [3] was 100 % of control and the T/C (dose: 25.0 mg/kg/injection, schedule: Q01DX001 (ip), vehicle: saline with Tween-80) is 111 % of control.

As to `Cc1ccc(N=Nc2nc3nc(N)[nH]c(=O)c3[nH]2)cc1`, the T/C was 100 % of control (dose: 50.0 mg/kg/injection, schedule: Q01DX005 (ip), vehicle: saline with Tween-80); 105 % of control (dose: 100.0 mg/kg/injection, schedule: Q01DX005 (ip), vehicle: saline with Tween-80); 87 % of control (dose: 200.0 mg/kg/injection, schedule: Q01DX005 (ip), vehicle: saline with Tween-80).

For the molecule `[O-]/C(CCl)=N\[n+]1c2c(nc3ccccc31)-c1cccc3cccc-2c13`, the T/C runs as follows: (dose: 12.5 mg/kg/injection, schedule: Q01DX001 (ip), vehicle: Klucel (hydroxypropylcellulose) (HPC)) 105 % of control; (dose: 25.0 mg/kg/injection, schedule: Q01DX001 (ip), vehicle: Klucel (hydroxypropylcellulose) (HPC)) 102 % of control.

For the molecule `S=C(N/N=C1\CSCc2ccccc21)Nc1cc(Cl)ccc1Cl`, the T/C is, setting by setting: under setting [4], 90 % of control; under setting [5], 88 % of control.

With `O=[N+]([O-])c1ccc(/C=C\S(=O)(=O)OCCCl)cc1`, the T/C is 115 % of control (dose: 3.12 mg/kg/injection, schedule: Q01DX005 (ip), vehicle: Klucel (hydroxypropylcellulose) (HPC)); 99 % of control (dose: 6.25 mg/kg/injection, schedule: Q01DX005 (ip), vehicle: Klucel (hydroxypropylcellulose) (HPC)); 114 % of control (dose: 12.5 mg/kg/injection, schedule: Q01DX005 (ip), vehicle: Klucel (hydroxypropylcellulose) (HPC)).

For `CC(C)=CCC(OC(=O)C=C(C)C)C1=CC(=O)c2c(O)ccc(O)c2C1=O` (stereo not drawn), the T/C is 100 % of control (dose: 1.25 mg/kg/injection, schedule: Q01DX009 (ip), vehicle: carboxymethylcellulose (CMC)); 95 % of control (dose: 2.5 mg/kg/injection, schedule: Q01DX009 (ip), vehicle: carboxymethylcellulose (CMC)); 118 % of control (dose: 3.12 mg/kg/injection, schedule: Q01DX009 (ip), vehicle: water); 113 % of control (dose: 6.25 mg/kg/injection, schedule: Q01DX009 (ip), vehicle: water); 122 % of control (dose: 6.25 mg/kg/injection, schedule: Q04DX003 (ip), vehicle: water); 122 % of control (dose: 12.5 mg/kg/injection, schedule: Q04DX003 (ip), vehicle: water).

With `O=C(O)c1ccc(O)c(=O)cc1`, the T/C under setting [3] is 102 % of control.

With `CSCc1cccc(CO)c1`, the T/C was 110 % of control under setting [6]; 100 % of control under setting [5]; 105 % of control (dose: 400.0 mg/kg/injection, schedule: Q01DX009 (ip), vehicle: saline with Tween-80).

`COc1cc(C=Nc2cc(Cl)c(Cl)c(Cl)c2)ccc1N(CCCl)CCCl`: the T/C reads like this: (dose: 1.8 mg/kg/injection, schedule: Q01DX009 (ip), vehicle: Klucel (hydroxypropylcellulose) (HPC)) 150 % of control; (dose: 2.7 mg/kg/injection, schedule: Q01DX009 (ip), vehicle: Klucel (hydroxypropylcellulose) (HPC)) 158 % of control; (dose: 3.12 mg/kg/injection, schedule: Q01DX009 (ip), vehicle: Klucel (hydroxypropylcellulose) (HPC)) 195 % of control; (dose: 4.1 mg/kg/injection, schedule: Q01DX009 (ip), vehicle: Klucel (hydroxypropylcellulose) (HPC)) 237 % of control and 163 % of control; (dose: 6.25 mg/kg/injection, schedule: Q01DX009 (ip), vehicle: Klucel (hydroxypropylcellulose) (HPC)) 227 % of control and 240 % of control and 208 % of control; (dose: 9.3 mg/kg/injection, schedule: Q01DX009 (ip), vehicle: Klucel (hydroxypropylcellulose) (HPC)) 254 % of control and 150 % of control. In addition, the T/C reads like this: under setting [7], 204 % of control; under setting [8], 120 % of control; (dose: 30.0 mg/kg/injection, schedule: Q04DX003 (ip), vehicle: Klucel (hydroxypropylcellulose) (HPC)) 186 % of control; (dose: 45.0 mg/kg/injection, schedule: Q04DX003 (ip), vehicle: Klucel (hydroxypropylcellulose) (HPC)) 272 % of control.

`CCCCCCCCCCCCCCCCCC[N+](C)(C)C` (tested in a mixture with another compound): the T/C reads like this: (dose: 1.0 mg/kg/injection, schedule: Q01DX009 (ip), vehicle: saline) 109 % of control; (dose: 2.0 mg/kg/injection, schedule: Q01DX009 (ip), vehicle: saline) 113 % of control; (dose: 4.0 mg/kg/injection, schedule: Q01DX009 (ip), vehicle: saline) 118 % of control.

In the case of `O=C(O)CCC(=O)Nc1cccc(Oc2ccc([N+](=O)[O-])cc2[N+](=O)[O-])c1`, the T/C is, setting by setting: (dose: 100.0 mg/kg/injection, schedule: Q04DX003 (ip), vehicle: other) 95 % of control; under setting [9], 113 % of control; (dose: 200.0 mg/kg/injection, schedule: Q04DX003 (ip), vehicle: other) 100 % of control; under setting [10], 109 % of control; (dose: 400.0 mg/kg/injection, schedule: Q04DX003 (ip), vehicle: other) 100 % of control.

For the molecule `C#CCCOC(=O)Nc1ccccc1`, the T/C (dose: 100.0 mg/kg/injection, schedule: Q01DX009 (ip), vehicle: Klucel (hydroxypropylcellulose) (HPC)) was 100 % of control; the T/C under setting [9] is 90 % of control; the T/C under setting [10] is 90 % of control.

As for `CCNSc1ccccc1`, the T/C is 109 % of control under setting [7]; 110 % of control under setting [8]; 106 % of control (dose: 50.0 mg/kg/injection, schedule: Q01DX009 (ip), vehicle: Klucel (hydroxypropylcellulose) (HPC)).

Consider `CC(c1ccccc1)(c1ccccc1)c1ccccc1`, for which the T/C is 101 % of control under setting [4], 101 % of control under setting [6] and 97 % of control under setting [5].
